Laboratory results taken from ChEMBL document CHEMBL1649360, “β-carboline alkaloids from Stellaria dichotoma var. lanceolata and their anti-inflammatory activity” (J Nat Prod, 2010).

System: RAW264.7
Experiment: Antiinflammatory activity in mouse RAW264.7 cells assessed as inhibition of LPS-stimulated nitric oxide production treated for 2 hrs before LPS challenge measured after 24 hrs […]
Assay type: functional, cell-based

Compound	IC50 [µM]
COC(=O)c1cc2c([nH]c3ccccc32)c(C(C)=O)n1	17.9
COC(=O)/C=C/NC(=O)c1cc2c([nH]c3ccccc32)c(C(C)=O)n1 [DICHOTOMIDE III]	17.3
N=C(N)NN [PIMAGEDINE]	4.6

Next, values leading:

IC50 [µM]	Compound
11.3	C/C=C(/C)C(=O)O[C@@H](C)c1nc(C(=O)N/C=C/C(=O)OC)cc2c1[nH]c1ccccc12 [DICHOTOMIDE X]
19.3	CC(=O)c1nc(C(N)=O)cc2c1[nH]c1ccccc12 [STELLARINES A]
18.6	COC(=O)/C=C\NC(=O)c1cc2c([nH]c3ccccc32)c(C(C)=O)n1 [STELLARINES B]
